Measured values: ChEMBL document CHEMBL1140113, “Structural requirements for drug inhibition of the liver specific human organic cation transport protein 1” (J Med Chem, 2008)

These molecules were tested against T1, OCT1 (SLC22A1) (Homo sapiens, UniProt O15245) (assay: in vitro). Conditions: HEK293 cells that express human OCT1, probe 4-(4-(dimethylamino)styryl)-N-methylpyridinium.
T1 sequence (O15245 whole entry): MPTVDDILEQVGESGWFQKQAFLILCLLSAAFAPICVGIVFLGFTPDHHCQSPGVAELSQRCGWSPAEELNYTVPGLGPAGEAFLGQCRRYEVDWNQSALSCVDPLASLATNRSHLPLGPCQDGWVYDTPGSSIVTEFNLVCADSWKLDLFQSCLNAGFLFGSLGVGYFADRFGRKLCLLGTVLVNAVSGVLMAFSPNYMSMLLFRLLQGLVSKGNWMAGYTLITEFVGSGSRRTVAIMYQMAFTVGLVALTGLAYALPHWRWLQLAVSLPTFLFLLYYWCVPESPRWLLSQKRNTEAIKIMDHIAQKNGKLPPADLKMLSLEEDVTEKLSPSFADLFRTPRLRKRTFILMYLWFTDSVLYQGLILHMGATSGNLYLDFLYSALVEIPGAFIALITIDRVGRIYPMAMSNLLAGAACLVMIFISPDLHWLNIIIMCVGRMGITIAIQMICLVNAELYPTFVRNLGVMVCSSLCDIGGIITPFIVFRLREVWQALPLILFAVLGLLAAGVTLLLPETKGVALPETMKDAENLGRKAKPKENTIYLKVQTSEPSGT

Compound | inhibition at 100 µM [%]
NS(=O)(=O)c1cc2c(cc1Cl)NCNS2(=O)=O [HYDROCHLOROTHIAZIDE] | -9.8
CC(C)Cc1ccc(C(C)C(=O)O)cc1 (configuration not stated) [IBUPROFEN] | 6.3
CC(=O)N1CCN(c2ccc(OCC3COC(Cn4ccnc4)(c4ccc(Cl)cc4Cl)O3)cc2)CC1 (configuration not stated) [KETOCONAZOLE] | 82.3
CC(C(=O)O)c1cccc(C(=O)c2ccccc2)c1 (configuration not stated) [KETOPROFEN] | -9.4
N[C@@H](Cc1ccc(O)c(O)c1)C(=O)O [LEVODOPA] | 21.7
N[C@@H](Cc1cc(I)c(Oc2cc(I)c(O)c(I)c2)c(I)c1)C(=O)O [LEVOTHYROXINE] | 12.7
CCN(CC)CC(=O)Nc1c(C)cccc1C [LIDOCAINE] | -2.3
CCOC(=O)N1CCC(=C2c3ccc(Cl)cc3CCc3cccnc32)CC1 [LORATADINE] | 51.8
OC[C@@H](O)[C@@H](O)[C@H](O)[C@H](O)CO [MANNITOL] | -1.4
Cc1cccc(CN2CCN(C(c3ccccc3)c3ccc(Cl)cc3)CC2)c1 (configuration not stated) [MECLIZINE] | 16.4
CC(C)NCC(O)c1cc(O)cc(O)c1 (configuration not stated) [METAPROTERENOL] | 12.6
Cn1cc[nH]c1=S [METHIMAZOLE] | 11.6
CN(Cc1cnc2nc(N)nc(N)c2n1)c1ccc(C(=O)N[C@@H](CCC(=O)O)C(=O)O)cc1 [METHOTREXATE] | 26.3
C[C@](N)(Cc1ccc(O)c(O)c1)C(=O)O [METHYLDOPA] | -7.2
COCCc1ccc(OCC(O)CNC(C)C)cc1 (configuration not stated) [METOPROLOL] | 32.4
CN1CCN2c3ccccc3Cc3ccccc3C2C1 (configuration not stated) [MIANSERIN] | 48.4
O=C1CC[C@@]2(O)[C@H]3Cc4ccc(O)c5c4[C@@]2(CCN3CC2CC2)[C@H]1O5 [NALTREXONE] | 40.3
CN(C)C(=O)Oc1cccc([N+](C)(C)C)c1 [NEOSTIGMINE BROMIDE] | 19.4
CC1COc2c(N3CCN(C)CC3)c(F)cc3c(=O)c(C(=O)O)cn1c23 (configuration not stated) [OFLOXACIN] | 21.1
Cc1ccccc1C(OCCN(C)C)c1ccccc1 (configuration not stated) [ORPHENADRINE] | 77.6
CCN(CC)CC#CCOC(=O)C(O)(c1ccccc1)C1CCCCC1 (configuration not stated) [OXYBUTYNIN] | 75.7
CC(=O)O[C@H]1C(=O)[C@@]2(C)[C@H]([C@H](OC(=O)c3ccccc3)[C@]3(O)C[C@H](OC(=O)[C@H](O)[C@@H](NC(=O)c4ccccc4)c4ccccc4)C(C)=C1C3(C)C)[C@]1(OC(C)=O)CO[C@@H]1C[C@@H]2O [PACLITAXEL] | 7.1
CC(=O)O[C@H]1C[C@@H]2CC[C@@H]3[C@H](CC[C@@]4(C)[C@H]3C[C@H]([N+]3(C)CCCCC3)[C@@H]4OC(C)=O)[C@@]2(C)C[C@@H]1[N+]1(C)CCCCC1 [PANCURONIUM] | -10.3
COc1ccc(Cc2nccc3cc(OC)c(OC)cc23)cc1OC [PAPAVERINE] | 66.3
CCC1(c2ccccc2)C(=O)NC(=O)NC1=O [PHENOBARBITAL] | -6
O=C1NC(=O)C(c2ccccc2)(c2ccccc2)N1 [PHENYTOIN] | -2

Compound | inhibition at 100 µM [%]
CC[C@@H]1C(=O)OC[C@@H]1Cc1cncn1C [PILOCARPINE] | 17
CC[C@H](C)C(=O)O[C@H]1C[C@H](O)C=C2C=C[C@H](C)[C@H](CC[C@@H](O)C[C@@H](O)CC(=O)O)[C@H]21 [PRAVASTATIN] | 5
C[C@]12C=CC(=O)C=C1CC[C@@H]1[C@@H]2C(=O)C[C@@]2(C)[C@H]1CC[C@]2(O)C(=O)CO [PREDNISONE] | 23.3
CCCN(CCC)S(=O)(=O)c1ccc(C(=O)O)cc1 [PROBENECID] | -8.9
CCN(CC)CCNC(=O)c1ccc(N)cc1 [PROCAINAMIDE] | 26.5
C=C[C@H]1C[N@@]2CC[C@H]1C[C@@H]2[C@@H](O)c1ccnc2ccc(OC)cc12 [QUINIDINE] | 62.9
C=C[C@H]1C[N@@]2CC[C@H]1C[C@H]2[C@H](O)c1ccnc2ccc(OC)cc12 [QUININE] | 60.2
CNC(=C[N+](=O)[O-])NCCSCc1ccc(CN(C)C)o1 [RANITIDINE] | 28.8
CO[C@H]1/C=C/O[C@@]2(C)Oc3c(C)c(O)c4c(O)c(c(/C=N/N5CCN(C)CC5)c(O)c4c3C2=O)NC(=O)/C(C)=C\C=C\[C@H](C)[C@H](O)[C@@H](C)[C@@H](O)[C@@H](C)[C@H](OC(C)=O)[C@@H]1C [RIFAMPIN] | 26.2
Cc1nc2n(c(=O)c1CCN1CCC(c3noc4cc(F)ccc34)CC1)CCCC2 [RISPERIDONE] | 39.3
CN1[C@@H]2C[C@@H](OC(=O)[C@H](CO)c3ccccc3)C[C@H]1[C@@H]1O[C@@H]12 [SCOPOLAMINE] | 43.9
CCC(C)(C)C(=O)O[C@H]1C[C@@H](C)C=C2C=C[C@H](C)[C@H](CC[C@@H]3C[C@@H](O)CC(=O)O3)[C@H]21 [SIMVASTATIN] | 22.6
CC(C)NCC(O)c1ccc(NS(C)(=O)=O)cc1 (configuration not stated) [SOTALOL] | 31.8
CC(=O)S[C@@H]1CC2=CC(=O)CC[C@]2(C)[C@H]2CC[C@@]3(C)[C@@H](CC[C@@]34CCC(=O)O4)[C@H]12 [SPIRONOLACTONE] | 87.9
O=C(O)c1cc(/N=N/c2ccc(S(=O)(=O)Nc3ccccn3)cc2)ccc1O [SULFASALAZINE] | -3.7
CC/C(=C(\c1ccccc1)c1ccc(OCCN(C)C)cc1)c1ccccc1 [TAMOXIFEN] | 72.1
CC(C)(C)NCC(O)c1cc(O)cc(O)c1 (configuration not stated) [TERBUTALINE] | 2.6
CC(C)(C)c1ccc(C(O)CCCN2CCC(C(O)(c3ccccc3)c3ccccc3)CC2)cc1 (configuration not stated) [TERFENADINE] | 65.4
CN(C)[C@@H]1C(O)=C(C(N)=O)C(=O)[C@@]2(O)C(O)=C3C(=O)c4c(O)cccc4[C@@](C)(O)[C@H]3C[C@@H]12 [TETRACYCLINE] | 10.4
Cn1c(=O)c2[nH]cnc2n(C)c1=O [THEOPHYLLINE] | -4.4
CC(C)(C)NC[C@H](O)COc1nsnc1N1CCOCC1 [TIMOLOL] | 39
CCS(=O)(=O)CCn1c([N+](=O)[O-])cnc1C [TINIDAZOLE] | 14.2
Cc1c(C)c2c(c(C)c1O)CCC(C)(COc1ccc(CC3SC(=O)NC3=O)cc1)O2 (configuration not stated) [TROGLITAZONE] | 48.2
CCCC(CCC)C(=O)O [VALPROIC ACID] | 19.6
CN[C@H](CC(C)C)C(=O)N[C@H]1C(=O)N[C@@H](CC(N)=O)C(=O)N[C@H]2C(=O)N[C@H]3C(=O)N[C@H](C(=O)N[C@H](C(=O)O)c4cc(O)cc(O)c4-c4cc3ccc4O)[C@H](O)c3ccc(c(Cl)c3)Oc3cc2cc(c3O[C@@H]2O[C@H](CO)[C@@H](O)[C@H](O)[C@H]2O[C@H]2C[C@](C)(N)[C@H](O)[C@H](C)O2)Oc2ccc(cc2Cl)[C@H]1O [VANCOMYCIN] | 7.1

Same assay, conditions: hek293

Compound | inhibition at 100 µM [%]
NNc1nncc2ccccc12 [HYDRALAZINE] | 6.5
CN1CCC[C@H]1c1cccnc1 [NICOTINE] | -3.7
CC(=O)[C@H]1CC[C@H]2[C@@H]3CCC4=CC(=O)CC[C@]4(C)[C@H]3CC[C@]12C [PROGESTERONE] | 55.7
CC(C)c1cccc(C(C)C)c1O [PROPOFOL] | -17.9
OC(CCN1CCCCC1)(c1ccccc1)C1CCCCC1 (configuration not stated) [TRIHEXYPHENIDYL] | 79.4
COc1cc(Cc2cnc(N)nc2N)cc(OC)c1OC [TRIMETHOPRIM] | 58.1
